Where only a bound is given, the exact number is not on record here.

Broadly, the AUC(0-t) is the area under the concentration-time curve up to a stated or last time point. The term Cmax denotes the maximum level reached in the sampled fluid or tissue. For orientation: Tmax means the time at which the peak concentration occurs. Usually half-life stands for how long it takes for the measured level to halve. In general, IC50 refers to the point on the concentration scale where inhibition reaches its midpoint.

Tested on in one series: not listed separately
Briefly: in vivo. Details: species or system SD rats. The note with it: male, SD, rat, po, 2 mg/kg. As for the experimental part:
Instrumentation: SCIEX Triple Quad 6500+ triple quadrupole liquid chromatography-mass spectrometry system (LC-MS/MS), operating software is Analyst 1.7.2 (Applied Biosystems, USA); ExionLC liquid chromatography system; Microsoft Excel was used for data calculation and processing. Pharmacokinetic parameters were calculated using the statistical moment method with WinNonlin 8.2 software. Key kinetic parameters included Tmax, T1/2, Cmax, AUC0-24 h etc. Column: Synergi 4 μm Fusion-RP 80 Å Luna C18 2 mm*50 mm, 4 μm; Column temperature: 40° C.; Mobile phase A: Water (0.1% formic acid); Mobile phase B: Acetonitrile; Flow rate: 0.8 mL/min; Gradient elution is adopted, the elution gradient is 0.10 min: 15% B; 1.60 min: 95% B; 1.90 min: 95% B; 1.91 min: 15% B; 2.20 min: 15% B. Injection volume: 1 μL.
Animals: 3 male SD rats with a weight range of 200-220 g were purchased and kept in the laboratory of the Experimental Animal Center for 3 days and then used. They were fasted for 12 hours predose and 4 hours after dosing. Drinking water was free during the test. After the rats were gavage, blood samples were taken according to the established time point.
Solvent: 0.4% ethanol+0.4% Tween80+99.2% (0.5% methylcellulose M450). Preparation of the solution for intragastric administration: Compounds were accurately weighed and added to the solvent. The mixture was then subjected to vortex mixing and sonication until a homogeneous suspension was achieved, thereby preparing medicinal solutions of the desired concentrations.
Compound samples: Typically, multiple structurally analogous compounds (with molecular weights differing by more than 2 units) were accurately weighed and administered together (cassette PK). This approach allows for the simultaneous screening of multiple compounds and comparison of their oral absorption rates. Single compound administration was also employed to study the pharmacokinetics of drug samples in rats.
After intragastric administration, blood was collected from the jugular vein at 0.25, 0.5, 1, 2, 4, 8, 10 and 24 hours. Transfer 20 μL of plasma sample (for blank samples and internal standard blank samples, add 20 μL of blank plasma) to a 1.5 mL centrifuge tube, add 200 μL of internal standard solution (50% methanol in acetonitrile (concentration 100 ng/mL)) (for Double blank samples, add 200 μL of 50% methanol in acetonitrile solution). Vortex the samples for 5 minutes, then centrifuge at 14000 rpm and 4° C. for 5 minutes. Transfer 80 μL and add to 80 μL of water, mix uniformly, and submit for LC-MS/MS analysis.
The compounds were accurately weighed to prepare different concentrations, and quantitative analysis on mass spectrometry was performed to establish a standard curve, and then the concentration of the above-mentioned compound in the plasma was tested to obtain its concentration at different time points. All measurement data were collected and processed by relevant software, and the statistical moment method was used to calculate the pharmacokinetic parameters (mainly including kinetic parameters Tmax, T1/2, Cmax, AUC0-24 h etc).
In the case of `CCOc1cncc(-c2ccc(NC(=O)C3(c4ccnc(NS(=O)(=O)C5CC5)n4)CCC(=C(C)C4COC4)CC3)nc2)n1` (stereo not shown) [Compound 51], the area under the curve AUC(0-t) stood at 62.7 ng·h/mL, the highest concentration (Cmax) came out at 14.5 ng/mL, the Tmax stood at 4 h and the half-life was 1.56 h.

Still in this series, the particulars now being: male, SD, rat, po, 3 mg/kg.
`CCOc1cncc(-c2ccc(NC(=O)C3(c4ccnc(NS(=O)(=O)C5CC5)n4)CCC(=CCO)CC3)nc2)n1` (stereo not shown) [Compound 5]: the exposure AUC(0-t) came to 417 ng·h/mL, the highest concentration (Cmax) is 359 ng/mL, the time of peak concentration (Tmax) amounted to 0.25 h and the half-life was 1.73 h.

The target of the next series is T1, hCTPS1 enzyme (Homo sapiens, UniProt P17812).
T1 sequence (P17812 1-591): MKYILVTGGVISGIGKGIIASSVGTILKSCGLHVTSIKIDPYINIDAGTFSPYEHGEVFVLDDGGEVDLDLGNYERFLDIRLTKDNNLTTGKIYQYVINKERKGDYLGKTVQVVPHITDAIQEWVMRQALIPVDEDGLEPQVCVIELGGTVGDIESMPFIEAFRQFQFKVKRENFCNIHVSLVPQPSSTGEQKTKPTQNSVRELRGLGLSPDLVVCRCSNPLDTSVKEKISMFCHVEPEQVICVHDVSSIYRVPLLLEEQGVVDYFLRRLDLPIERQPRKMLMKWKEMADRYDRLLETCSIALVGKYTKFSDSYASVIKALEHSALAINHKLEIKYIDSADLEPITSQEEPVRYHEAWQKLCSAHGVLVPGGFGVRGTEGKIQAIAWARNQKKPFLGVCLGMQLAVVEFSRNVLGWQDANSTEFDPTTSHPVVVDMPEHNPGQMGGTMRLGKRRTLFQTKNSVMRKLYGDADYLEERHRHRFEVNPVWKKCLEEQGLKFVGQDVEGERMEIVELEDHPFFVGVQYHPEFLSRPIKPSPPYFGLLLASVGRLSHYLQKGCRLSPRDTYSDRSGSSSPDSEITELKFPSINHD
Briefly: Inhibition of CTPS1 enzyme activity (ADP-Glo method). In kind it is biochemical. To be noted: hCTPS1, 90 min reaction at 25° C. The protocol: The enzyme activity of CTPS1 was tested using the ADP-Glo method. Compounds were serially diluted in DMSO with 3-fold gradients across ten concentrations. Transfer 0.1 μL of diluted compound to a 384-well plate, centrifuge at 1000 rpm for 1 min. Add 2.5 μL of hCTPS1 enzyme working solution, centrifuge at 1000 rpm for 1 min, and incubate at 25° C. for 10 min. Add 2.5 μL of ATP & UTP solution and incubate at 25° C. for 10 min. Add 5 μL of substrate solution to initiate the reaction and incubate at 25° C. for 90 min. Add 10 μL of ADP-Glo solution to the 384-well plate, centrifuge at 1000 rpm for 1 min, incubate at 25° C. for 40 min, add 20 μL of detection solution, centrifuge at 1000 rpm for 1 min, and incubate at 25° C. for 60 min. […] were read using a BMG microplate reader. Inhibition rate (%) was calculated as follows: Inhibition rate (%)=[(DMSO control well signal−Compound well signal)/(DMSO control well signal−Blank control well signal)]×100%. IC50 values for compounds were analyzed by nonlinear regression in XLFit 5.5.0 software using the formula: Y=Bottom+(Top−Bottom)/(1+10^((LogIC50−X)*HillSlope)) where Y is the inhibition rate and X is the log value of compound concentration.
(ADP-Glo first removes unused ATP, then detects ADP through luciferase.)
As for `CCOc1cncc(-c2ccc(NC(=O)C3(c4ccnc(NS(=O)(=O)C5CC5)n4)CCC(=C(F)CC(C)(C)O)CC3)nc2)n1` (stereo not shown) [Compound 67], the IC50 was below 50 nM.

`CCOc1cncc(-c2ccc(C(=O)NC3(c4ccnc(NS(=O)(=O)C5CC5)n4)CCC(=C(F)F)CC3)nc2)n1` (stereo not shown) [Compound 70]: the IC50 was below 200 nM.

For another series, the system named is Jurkat cells. Briefly: Inhibition of Jurkat cell proliferation (CellTiter-Glo, 72 hours). In kind it is cell-based. The note with it: Homo sapiens; Jurkat cells, 72 hours, CellTiter-Glo; read-out: Jurkat (IC50). As for the experimental part:
Select Jurkat cells in good growth condition and digest them with trypsin. Add fresh culture medium, mix thoroughly, and centrifuge at 1000 rpm for 5 minutes. Seed the cells into a 96-well plate at a density of 10,000 cells per well, and incubate overnight in a 37° C. incubator. On the following day, take out of the culture plate and treat the cells with compounds prepared in a five-fold serial dilution. Return the plate to the 37° C. incubator and continue incubation for 72 hours.
After incubation, bring out the cell culture plate and equilibrate it to room temperature. Add 100 μL of CellTiter-Glo reagent to each well, shake in the dark for 2 minutes, and incubate for 10 minutes. Measure the luminescence using an Enspire plate reader. Calculate the inhibition rate using the following formula: Inhibition rate (%)=(1−(RLU_compound−RLU_blank)/(RLU_DMSO−RLU_blank))×100%. Plot the dose-response curve and calculate the IC50 value using XLFit.
A general note: In ATP-based viability assays light output follows the ATP content of the culture.
In the case of `CCOc1cncc(-c2ccc(NC(=O)C3(c4ccnc(NS(=O)(=O)C5CC5)n4)CCC(=CC(C)=O)CC3)nc2)n1` (stereo not shown) [Compound 60], the IC50 was below 30 nM.

For `CCOc1cncc(-c2ccc(NC(=O)C3(c4ccnc(NS(=O)(=O)C5CC5)n4)CCC(=C(F)CC(C)(C)O)CC3)nc2)n1` (stereo not shown) [Compound 67], the concentration for half-maximal inhibition (IC50) is below 50 nM.

For `CCOc1cncc(-c2ccc(NC(=O)C3(c4ccnc(NS(=O)(=O)C5CC5)n4)CCC(=C(C)C4COC4)CC3)nc2)n1` (stereo not shown) [Compound 51], the half-maximal inhibitory concentration (IC50) is below 30 nM.

`CCOc1cncc(-c2ccc(NC(=O)C3(c4ccnc(NS(=O)(=O)C5CC5)n4)CC(=CF)C3)nc2)n1` (stereo not shown) [Compound 20]: the IC50 is below 200 nM.

For `CCOc1cncc(-c2ccc(NC(=O)C3(c4ccnc(NS(=O)(=O)C5CC5)n4)CCC(=Cc4cncnc4)CC3)nc2)n1` (stereo not shown) [Compound 56], the 50% inhibitory concentration (IC50) was below 50 nM.

With `CCOc1cncc(-c2ccc(NC(=O)C3(c4ccnc(NS(=O)(=O)C5CC5)n4)CCC(=CCc4ccccc4)CC3)nc2)n1` (stereo not shown) [Compound 21], the 50% inhibitory concentration (IC50) was below 1000 nM.

On to `CCOc1cncc(-c2cnc(C(=O)NC3(c4ccnc(NS(=O)(=O)C5CC5)n4)CCC(=C(F)F)CC3)s2)n1` (stereo not shown) [Compound 72], for which the concentration for half-maximal inhibition (IC50) was below 200 nM.

As to `CCOc1cncc(-c2ccc(NC(=O)C3(c4ccnc(NS(=O)(=O)C5CC5)n4)CCC4(CC3)CC(=C(F)F)C4)nc2)n1` (stereo not shown) [Compound 64], the IC50 was below 50 nM.

On to `CCOc1cncc(-c2ccc(NC(=O)C3(c4ccnc(NS(=O)(=O)C5CC5)n4)CCC(=Cc4ccoc4)CC3)nc2)n1` (stereo not shown) [Compound 42], for which the 50% inhibitory concentration (IC50) was below 50 nM.

Regarding `CCOc1cncc(-c2ccc(NC(=O)C3(c4ccnc(NS(=O)(=O)C5CC5)n4)CCC(=CCO)CC3)nc2)n1` (stereo not shown) [Compound 5], the IC50 is below 15 nM.

Turning to `CCOc1cncc(-c2ccc(NC(=O)C3(c4nccc(NS(=O)(=O)C5CC5)n4)CCC(=C(F)F)CC3)nc2)n1` (stereo not shown) [Compound 66], the IC50 was below 50 nM.

For the compound `CCOc1cncc(-c2ccc(NC(=O)C(=C3CCOCC3)c3ccnc(NS(=O)(=O)C4CC4)n3)nc2)n1` [Compound 33], the IC50 was below 1000 nM.

In the case of `CCOc1cncc(-c2ccc(NC(=O)C3(c4ccnc(NS(=O)(=O)C5CC5)n4)CCC(=C(F)F)CC3)c(F)c2)n1` (stereo not shown) [Compound 65], the IC50 was below 50 nM.

For the compound `C=C1CCC(C(=O)Nc2ccc(-c3cncc(OCC)n3)cn2)(c2ccnc(NS(=O)(=O)C3CC3)n2)CC1` [Compound 9], the IC50 is below 50 nM.

With `CCOc1cncc(-c2ccc(NC(=O)C3(c4ccnc(NS(=O)(=O)C5CC5)n4)CCC(=C(F)C#N)CC3)nc2)n1` (stereo not shown) [Compound 49], the concentration for half-maximal inhibition (IC50) was below 50 nM.

As for `CCOc1cncc(-c2ccc(NC(=O)C3(c4csc(NS(=O)(=O)C5CC5)n4)CCC(=C(F)F)CC3)nc2)n1` (stereo not shown) [Compound 73], the IC50 was below 30 nM.

For the compound `CCOc1cncc(-c2cnc(NC(=O)C3(c4ccnc(NS(=O)(=O)C5CC5)n4)CCC(=C(F)F)CC3)c(F)c2)n1` (stereo not shown) [Compound 71], the 50% inhibitory concentration (IC50) is below 200 nM.

For the compound `CCOc1cncc(-c2ccc(NC(=O)C3(c4ccnc(NS(=O)(=O)C5CC5)n4)CCC(=CCN)CC3)nc2)n1` (stereo not shown) [Compound 41], the half-inhibitory concentration (IC50) was below 100 nM.

Consider `CCOc1cncc(-c2ccc(NC(=O)C3(c4ccnc(NS(=O)(=O)C5CC5)n4)CCN(c4ccncc4)CC3)nc2)n1` [Compound 35], for which the IC50 was below 200 nM.

Regarding `CCOc1cncc(-c2ccc(NC(=O)C3(c4ccnc(N(C)S(=O)(=O)C5CC5)n4)CCC(=CCO)CC3)nc2)n1` (stereo not shown) [Compound 6], the IC50 was below 100 nM.

As to `CCOc1cncc(-c2ccc(NC(=O)C3(c4ccnc(NS(=O)(=O)C5CC5)n4)CCC(=C(F)C(C)=O)CC3)nc2)n1` (stereo not shown) [Compound 61], the half-maximal inhibitory concentration (IC50) was below 50 nM.

Turning to `CCOc1cncc(-c2ccc(NC(=O)C3(c4ccnc(NS(=O)(=O)C5CC5)n4)CCC(=CCOC)CC3)nc2)n1` (stereo not shown) [Compound 17], the IC50 is below 200 nM.

`CCOc1cncc(-c2ccc(NC(=O)C3(c4ccnc(NS(=O)(=O)C5CC5)n4)CCC(=CC4CC(O)C4)CC3)nc2)n1` (stereo not shown) [Compound 59]: the IC50 was below 15 nM.

`O=C(Nc1ccc(-c2cncc(OC3CC(=C(F)F)C3)n2)cn1)C1(c2ccnc(NS(=O)(=O)C3CC3)n2)CCOCC1` (stereo not shown) [Compound 7]: the half-inhibitory concentration (IC50) was below 750 nM.

`CCOc1cncc(-c2ccc(NC(=O)C3(c4ccnc(NS(=O)(=O)C5CC5)n4)CCC(=CC(C)(C)O)CC3)nc2)n1` (stereo not shown) [Compound 57]: the 50% inhibitory concentration (IC50) was below 50 nM.

With `CCOc1cncc(-c2ccc(NC(=O)C3(c4ccnc(NS(=O)(=O)C5CC5)n4)CCC(=Cc4ccccn4)CC3)nc2)n1` (stereo not shown) [Compound 38], the IC50 is below 30 nM.

Consider `CCOc1cncc(-c2ccc(NC(=O)C3(c4ccnc(NS(=O)(=O)C5CC5)n4)CCC(=CC(N)=O)CC3)nc2)n1` (stereo not shown) [Compound 40], for which the IC50 is below 200 nM.

For the compound `CCOc1cncc(-c2ccc(NC(=O)C3(c4ccnc(NS(=O)(=O)C5CC5)n4)CCC(=Cc4ccsc4)CC3)nc2)n1` (stereo not shown) [Compound 53], the IC50 was below 100 nM.

In the case of `CCOC(=O)C(F)=C1CCC(C(=O)Nc2ccc(-c3cncc(OCC)n3)cn2)(c2ccnc(NS(=O)(=O)C3CC3)n2)CC1` (stereo not shown) [Compound 43], the concentration for half-maximal inhibition (IC50) is below 50 nM.

Regarding `CCOc1cncc(-c2ccc(NC(=O)C3(c4ccnc(NS(=O)(=O)C5CC5)n4)CCN(c4cccnc4)CC3)nc2)n1` [Compound 25], the IC50 was below 30 nM.
